Assay results as given in PMC6838048, “A Cell-Free Approach Based on Phospholipid Characterization for Determination of the Cell Specific Unbound Drug Fraction (fu,cell)” (Pharmaceutical Research, 2019).

Assay: fu,PL from membrane affinity to PL-covered silica beads, PS
Assay type: in vitro ADME
Conditions: silica beads covered with phosphatidylserine (PS), Transil; beads coated with pure PS, 15 min incubation; read-out: fu,PS Geomean
Procedure: (§1) f u,PL was derived from membrane affinity measurements to beads covered with PLs as previously described ([6]).
(§2) Cbuffer was quantified by LC-MS/MS in samples of the supernatant that was obtained after 15 min incubation time on an orbital shaker at 1000 rpm and subsequent separation from the beads by centrifugation at 750 x g. […] Unspecific binding was evaluated by incubations into wells without added lipids.

Row | fraction unbound at 15 min | Structure (SMILES)
1 | 0.0034 | CC(C)n1c(/C=C/C(O)CC(O)CC(=O)O)c(-c2ccc(F)cc2)c2ccccc21 (centres unmarked) [Fluvastatin]
2 | 0.0016 | COc1ccc([C@@H]2Sc3ccccc3N(CCN(C)C)C(=O)[C@@H]2OC(C)=O)cc1 [Diltiazem]
3 | 0.0014 | COc1ccccc1Oc1c(NS(=O)(=O)c2ccc(C(C)(C)C)cc2)nc(-c2ncccn2)nc1OCCO [Bosentan]

Assay: fu,PL from membrane affinity to PL-covered silica beads, PE
Assay type: in vitro ADME
Conditions: beads coated with pure PE, 15 min incubation; read-out: fu,PE Geomean
Procedure: as §1, §2

Row | fraction unbound at 15 min | Structure (SMILES)
4 | 0.0067 | CC(C)n1c(/C=C/C(O)CC(O)CC(=O)O)c(-c2ccc(F)cc2)c2ccccc21 (centres unmarked) [Fluvastatin]
5 | 0.0083 | COc1ccc([C@@H]2Sc3ccccc3N(CCN(C)C)C(=O)[C@@H]2OC(C)=O)cc1 [Diltiazem]
6 | 0.0019 | COc1ccccc1Oc1c(NS(=O)(=O)c2ccc(C(C)(C)C)cc2)nc(-c2ncccn2)nc1OCCO [Bosentan]

Assay: fu,PL from membrane affinity to PL-covered silica beads, mixed beads
Assay type: in vitro ADME
Conditions: mixed beads PC:PE:PS:PI 52:22:12:14 mol%, 15 min incubation; read-out: fu,mixed bead Geomean
Procedure: as §1, §2

Row | fraction unbound at 15 min | Structure (SMILES)
7 | 0.002 | CC(C)n1c(/C=C/C(O)CC(O)CC(=O)O)c(-c2ccc(F)cc2)c2ccccc21 (centres unmarked) [Fluvastatin]
8 | 0.0034 | COc1ccc([C@@H]2Sc3ccccc3N(CCN(C)C)C(=O)[C@@H]2OC(C)=O)cc1 [Diltiazem]
9 | 0.004 | COc1ccccc1Oc1c(NS(=O)(=O)c2ccc(C(C)(C)C)cc2)nc(-c2ncccn2)nc1OCCO [Bosentan]

Assay: fu,cell by equilibrium dialysis of cell homogenate, MDCK
Assay type: in vitro ADME
Conditions: dog, dialysis 4 h 37°C, 10 million cells/mL homogenate, read-out: fu,MDCK Geomean
Procedure: (§3) fu,cell was measured in cassette-mode as previously described with minor modifications ([9]). Briefly, 10 million cells/mL were suspended in HBSS buffered with 10 mM HEPES and homogenized on ice by sonication (VCX 750 Sonicator, 3 mm probe, 20% intensity, 10 s). Up to 8 compounds were combined randomly and spiked into the homogenate for a final concentration of 0.5 μM. Equilibrium dialysis was performed in a Rapid Equilibirum device (Thermo Fisher Scientific) against blank HBSS buffered with 10 mM HEPES, for 4 h at 37°C on an orbital shaker at 900 rpm. Stability controls were kept at 4° and 37°C for the duration of the experiment. The concentration in both dialysis chambers was quantified by extracting the compound with acetonitrile/water (60/40) containing internal standard. Matrixes were matched with blank buffer or cell homogenate, respectively. LC-MS/MS parameters are available in Table S9. All experiments were carried out in triplicates and at least at two independent occasions.
(§4) (3), assuming the Vcell to be equal to 6.5 μL/mg protein ([6],[10]). Protein content in the cell homogenates was determined at each experiment using the BCA Protein Assay Reagent Kit (Thermo Fisher Scientific Inc.).3 DP=1/Vcell

Row | fraction unbound at 4 h, 0.5 μM | Structure (SMILES)
10 | 0.0338 | CC(C)n1c(/C=C/C(O)CC(O)CC(=O)O)c(-c2ccc(F)cc2)c2ccccc21 (centres unmarked) [Fluvastatin]
11 | 0.069 | COc1ccc([C@@H]2Sc3ccccc3N(CCN(C)C)C(=O)[C@@H]2OC(C)=O)cc1 [Diltiazem]
12 | 0.036 | COc1ccccc1Oc1c(NS(=O)(=O)c2ccc(C(C)(C)C)cc2)nc(-c2ncccn2)nc1OCCO [Bosentan]

Assay: fu,cell by equilibrium dialysis of cell homogenate, K562
Assay type: in vitro ADME
Conditions: human, dialysis 4 h 37°C, 10 million cells/mL homogenate, read-out: fu,K562 Geomean
Procedure: as §3
(§5) The unbound fraction in the cell homogenate (fu,hom) was determined according to Eq. (1):1 fu,hom=Cbuffer/Chom and the fraction of unbound compound in the cell (fu,cell) was calculated by correcting for homogenate dilution according to Eq. (2):2 fu,cell=1/DP∙1/fu,hom−1+1 where the dilution constant DP was calculated using Eq. (3), assuming the Vcell to be equal to 6.5 μL/mg protein ([6],[10]). Protein content in the cell homogenates was determined at each experiment using the BCA Protein Assay Reagent Kit (Thermo Fisher Scientific Inc.).3 DP=1/Vcell

Row | fraction unbound at 4 h, 0.5 μM | Structure (SMILES)
13 | 0.0838 | CC(C)n1c(/C=C/C(O)CC(O)CC(=O)O)c(-c2ccc(F)cc2)c2ccccc21 (centres unmarked) [Fluvastatin]
14 | 0.119 | COc1ccc([C@@H]2Sc3ccccc3N(CCN(C)C)C(=O)[C@@H]2OC(C)=O)cc1 [Diltiazem]
15 | 0.0856 | COc1ccccc1Oc1c(NS(=O)(=O)c2ccc(C(C)(C)C)cc2)nc(-c2ncccn2)nc1OCCO [Bosentan]

Assay: fu,cell by equilibrium dialysis of cell homogenate, LLC-PK1
Assay type: in vitro ADME
Conditions: pig, dialysis 4 h 37°C, 10 million cells/mL homogenate, read-out: fu,LLCPK1 Geomean
Procedure: as §3, §5

Row | fraction unbound at 4 h, 0.5 μM | Structure (SMILES)
16 | 0.0389 | CC(C)n1c(/C=C/C(O)CC(O)CC(=O)O)c(-c2ccc(F)cc2)c2ccccc21 (centres unmarked) [Fluvastatin]
17 | 0.0588 | COc1ccc([C@@H]2Sc3ccccc3N(CCN(C)C)C(=O)[C@@H]2OC(C)=O)cc1 [Diltiazem]
18 | 0.0538 | COc1ccccc1Oc1c(NS(=O)(=O)c2ccc(C(C)(C)C)cc2)nc(-c2ncccn2)nc1OCCO [Bosentan]

Assay: fu,cell by equilibrium dialysis of cell homogenate, Caco-2
Assay type: in vitro ADME
Conditions: human, Caco-2 cell homogenate, dialysis 4 h 37°C, 10 million cells/mL homogenate, read-out: fu,Caco-2 Geomean
Procedure: as §3, §4

Row | fraction unbound at 4 h, 0.5 μM | Structure (SMILES)
19 | 0.0245 | CC(C)n1c(/C=C/C(O)CC(O)CC(=O)O)c(-c2ccc(F)cc2)c2ccccc21 (centres unmarked) [Fluvastatin]
20 | 0.1 | COc1ccc([C@@H]2Sc3ccccc3N(CCN(C)C)C(=O)[C@@H]2OC(C)=O)cc1 [Diltiazem]
21 | 0.0335 | COc1ccccc1Oc1c(NS(=O)(=O)c2ccc(C(C)(C)C)cc2)nc(-c2ncccn2)nc1OCCO [Bosentan]

Assay: fu,cell by equilibrium dialysis of cell homogenate, primary human hepatocytes
Assay type: in vitro ADME
Conditions: primary human hepatocyte homogenate, dialysis 4 h 37°C, 10 million cells/mL homogenate, read-out: fu,HH Geomean
Procedure: as §3, §5

Row | fraction unbound at 4 h, 0.5 μM | Structure (SMILES)
22 | 0.0445 | COc1ccc([C@@H]2Sc3ccccc3N(CCN(C)C)C(=O)[C@@H]2OC(C)=O)cc1 [Diltiazem]
23 | 0.0337 | COc1ccccc1Oc1c(NS(=O)(=O)c2ccc(C(C)(C)C)cc2)nc(-c2ncccn2)nc1OCCO [Bosentan]

Assay: fu,PL from membrane affinity to PL-covered silica beads, PC
Assay type: in vitro ADME
Conditions: silica beads covered with phosphatidylcholine (PC), Transil; beads coated with pure PC, 15 min incubation; read-out: fu,PC Geomean
Procedure: as §1, §2

Row | fraction unbound at 15 min | Structure (SMILES)
24 | 0.001 | CC(C)n1c(/C=C/C(O)CC(O)CC(=O)O)c(-c2ccc(F)cc2)c2ccccc21 (centres unmarked) [Fluvastatin]
25 | 0.0023 | COc1ccc([C@@H]2Sc3ccccc3N(CCN(C)C)C(=O)[C@@H]2OC(C)=O)cc1 [Diltiazem]
26 | 0.002 | COc1ccccc1Oc1c(NS(=O)(=O)c2ccc(C(C)(C)C)cc2)nc(-c2ncccn2)nc1OCCO [Bosentan]

Assay: fu,cell by equilibrium dialysis of cell homogenate, HEK293
Assay type: in vitro ADME
Conditions: human, dialysis 4 h 37°C, 10 million cells/mL homogenate, read-out: fu,HEK293 Geomean
Procedure: as §3, §5

Row | fraction unbound at 4 h, 0.5 μM | Structure (SMILES)
27 | 0.0403 | CC(C)n1c(/C=C/C(O)CC(O)CC(=O)O)c(-c2ccc(F)cc2)c2ccccc21 (centres unmarked) [Fluvastatin]
28 | 0.0637 | COc1ccc([C@@H]2Sc3ccccc3N(CCN(C)C)C(=O)[C@@H]2OC(C)=O)cc1 [Diltiazem]
29 | 0.0634 | COc1ccccc1Oc1c(NS(=O)(=O)c2ccc(C(C)(C)C)cc2)nc(-c2ncccn2)nc1OCCO [Bosentan]

Assay: fu,cell by equilibrium dialysis of cell homogenate, HL60
Assay type: in vitro ADME
Conditions: human, dialysis 4 h 37°C, 10 million cells/mL homogenate, read-out: fu,HL60 Geomean
Procedure: as §3, §5

Row | fraction unbound at 4 h, 0.5 μM | Structure (SMILES)
30 | 0.0569 | CC(C)n1c(/C=C/C(O)CC(O)CC(=O)O)c(-c2ccc(F)cc2)c2ccccc21 (centres unmarked) [Fluvastatin]
31 | 0.206 | COc1ccc([C@@H]2Sc3ccccc3N(CCN(C)C)C(=O)[C@@H]2OC(C)=O)cc1 [Diltiazem]
32 | 0.0579 | COc1ccccc1Oc1c(NS(=O)(=O)c2ccc(C(C)(C)C)cc2)nc(-c2ncccn2)nc1OCCO [Bosentan]

Assay: fu,cell by equilibrium dialysis of cell homogenate, A549
Assay type: in vitro ADME
Conditions: human, dialysis 4 h 37°C, 10 million cells/mL homogenate, read-out: fu,A549 Geomean
Procedure: as §3, §5

Row | fraction unbound at 4 h, 0.5 μM | Structure (SMILES)
33 | 0.0161 | CC(C)n1c(/C=C/C(O)CC(O)CC(=O)O)c(-c2ccc(F)cc2)c2ccccc21 (centres unmarked) [Fluvastatin]
34 | 0.0287 | COc1ccc([C@@H]2Sc3ccccc3N(CCN(C)C)C(=O)[C@@H]2OC(C)=O)cc1 [Diltiazem]
35 | 0.0519 | COc1ccccc1Oc1c(NS(=O)(=O)c2ccc(C(C)(C)C)cc2)nc(-c2ncccn2)nc1OCCO [Bosentan]
